Tests used:
Type in all cases: cell-based
human GLUT1 = target: T1, human GLUT1 (Homo sapiens, UniProt P11166); assay: [3H]-deoxy-D-glucose uptake assay, GLUT1; details: [3H]-deoxy-D-glucose uptake in HEK293 cells stably expressing human GLUT1
T1 construct: expressed in transfected cells
T1 sequence (P11166 1-492): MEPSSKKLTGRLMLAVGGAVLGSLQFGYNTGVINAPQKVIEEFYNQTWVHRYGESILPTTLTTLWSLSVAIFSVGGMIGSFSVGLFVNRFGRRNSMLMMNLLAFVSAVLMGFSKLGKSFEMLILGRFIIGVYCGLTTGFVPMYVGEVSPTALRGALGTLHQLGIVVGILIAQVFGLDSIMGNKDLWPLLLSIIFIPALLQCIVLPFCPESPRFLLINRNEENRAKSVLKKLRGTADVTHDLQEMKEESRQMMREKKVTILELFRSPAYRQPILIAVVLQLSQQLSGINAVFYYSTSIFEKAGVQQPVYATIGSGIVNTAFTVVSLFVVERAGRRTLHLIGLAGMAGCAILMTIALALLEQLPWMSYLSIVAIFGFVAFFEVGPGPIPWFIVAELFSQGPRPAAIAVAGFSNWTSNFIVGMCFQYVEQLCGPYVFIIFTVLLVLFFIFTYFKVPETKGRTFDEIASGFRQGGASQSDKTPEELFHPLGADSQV
How it was run: (§1)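 HEK293 cells stably overexpressing human GLUT1 or GLUT2, seeded at 60,000 per well, treated with compounds in glucose-free uptake buffer for 30 min at 37 °C. [3H]-deoxy-D-glucose uptake quantified by scintillation counting after ice-cold PBS washes; IC50 determined.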

human GLUT2 = target: T2, human GLUT2 (Homo sapiens, UniProt P11168); assay: [3H]-deoxy-D-glucose uptake assay, GLUT2; details: [3H]-deoxy-D-glucose uptake in HEK293 cells stably expressing human GLUT2
T2 construct: expressed in transfected cells
T2 sequence (P11168 1-524): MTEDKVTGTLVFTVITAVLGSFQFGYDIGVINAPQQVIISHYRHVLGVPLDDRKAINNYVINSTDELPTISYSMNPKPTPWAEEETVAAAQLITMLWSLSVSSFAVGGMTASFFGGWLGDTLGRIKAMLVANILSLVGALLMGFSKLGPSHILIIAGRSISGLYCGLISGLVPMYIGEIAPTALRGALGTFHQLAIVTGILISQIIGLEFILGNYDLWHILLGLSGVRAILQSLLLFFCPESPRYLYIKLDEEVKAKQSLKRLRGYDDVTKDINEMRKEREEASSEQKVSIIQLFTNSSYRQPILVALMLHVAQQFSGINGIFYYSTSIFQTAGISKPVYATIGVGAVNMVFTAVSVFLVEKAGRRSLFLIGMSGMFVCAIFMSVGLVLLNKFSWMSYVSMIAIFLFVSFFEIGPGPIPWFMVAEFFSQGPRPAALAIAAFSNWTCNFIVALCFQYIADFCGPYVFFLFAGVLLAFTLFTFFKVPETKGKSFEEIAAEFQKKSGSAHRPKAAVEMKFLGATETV
How it was run: as §1

human GLUT3 = target: T3, human GLUT3 (Homo sapiens, UniProt P11169); assay: [3H]-deoxy-D-glucose uptake assay, GLUT3; details: [3H]-deoxy-D-glucose uptake in HEK293 cells stably expressing human GLUT3
T3 construct: expressed in transfected cells
T3 sequence (P11169 1-496): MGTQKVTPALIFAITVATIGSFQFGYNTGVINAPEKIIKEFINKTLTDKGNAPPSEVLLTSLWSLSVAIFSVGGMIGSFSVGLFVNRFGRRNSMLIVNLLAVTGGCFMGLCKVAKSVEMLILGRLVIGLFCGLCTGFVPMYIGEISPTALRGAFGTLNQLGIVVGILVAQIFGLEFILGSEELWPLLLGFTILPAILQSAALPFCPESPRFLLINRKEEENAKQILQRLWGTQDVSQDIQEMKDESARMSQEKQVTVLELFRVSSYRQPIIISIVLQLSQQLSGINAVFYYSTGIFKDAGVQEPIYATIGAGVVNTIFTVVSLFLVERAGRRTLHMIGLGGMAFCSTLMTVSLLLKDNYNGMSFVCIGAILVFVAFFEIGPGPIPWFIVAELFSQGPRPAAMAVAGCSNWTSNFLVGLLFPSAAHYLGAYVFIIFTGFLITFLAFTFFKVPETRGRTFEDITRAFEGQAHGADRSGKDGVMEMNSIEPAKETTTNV
Description: (§2) HEK293 cells were engineered to stably express either human GLUT1, GLUT2, GLUt3 or GLUT4 by transfection with the pReceiver-Lv105 plasmid, containing either hGLUT1, hGLUT2, hGLUT3, or hGLUT4 gene constructs with lipofectamine 2000, hGLUT1- hGLUT2- hGLUT3- or hGLUT4-overexpressing polyclonal populations were isolated under purinomycin selective pressure (1 μg/ml) and maintained in Dulbecco's modified Eagle's medium supplemented with 1 μg/ml purinomycin+10% foetal bovine serum (FBS).
(§3) 60,000 cells per well were seeded overnight into poly-D-lysine coasted 96-well plates. Following media removal, cells were washed twice in warm glucose-free uptake buffer (25 mM HEPES/KOH pH 7.4, 125 mM NaCl, 4.8 mM KCl, 1.2 mM MgSO4, 1.2 mM CaCl2, 1.2 mM KH2PO4). 90 μl of test compounds were added in glucose-free uptake buffer and cells were incubated at 37° C. for 30 min. 10 μl of [3H]-deoxy-D-glucose (0.25 μCi, 125 μM final assay concentration) was then added per well in glucose-free uptake buffer and uptake was allowed to proceed at 37° C. for 30 min.
(§4) Cells were then washed twice with ice-cold PBS and 100 μl of Microscint-20 was added per well. Glucose uptake was quantified with a scintillation counter. The half maximal inhibitory concentration (IC50) (a measure of the effectiveness of the test compound in inhibiting glucose uptake) was determined.

human GLUT4 = target: T4, human GLUT4 (Homo sapiens, UniProt P14672); assay: [3H]-deoxy-D-glucose uptake assay, GLUT4; details: [3H]-deoxy-D-glucose uptake in HEK293 cells stably expressing human GLUT4
T4 construct: expressed in transfected cells
T4 sequence (P14672 1-509): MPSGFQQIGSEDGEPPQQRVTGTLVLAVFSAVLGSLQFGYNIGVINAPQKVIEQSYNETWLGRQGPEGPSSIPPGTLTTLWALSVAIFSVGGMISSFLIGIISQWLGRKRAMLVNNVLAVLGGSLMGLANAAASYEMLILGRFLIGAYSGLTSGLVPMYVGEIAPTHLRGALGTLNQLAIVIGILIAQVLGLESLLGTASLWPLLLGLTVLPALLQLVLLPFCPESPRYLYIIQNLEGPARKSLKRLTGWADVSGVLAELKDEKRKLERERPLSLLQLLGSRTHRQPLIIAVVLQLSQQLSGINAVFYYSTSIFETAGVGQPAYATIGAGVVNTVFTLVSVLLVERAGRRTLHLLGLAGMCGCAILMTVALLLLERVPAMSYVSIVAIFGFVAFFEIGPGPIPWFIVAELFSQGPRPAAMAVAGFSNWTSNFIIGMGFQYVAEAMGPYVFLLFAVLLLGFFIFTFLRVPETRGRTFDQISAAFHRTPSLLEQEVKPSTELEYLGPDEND
Description: as §2, §3, §4

| SMILES | GLUT1 pIC50 (human GLUT1) | GLUT2 pIC50 (human GLUT2) | GLUT3 pIC50 (human GLUT3) | GLUT4 pIC50 (human GLUT4) |
| --- | --- | --- | --- | --- |
| CN(c1ccc2nc(-c3ccc(Cl)cc3Cl)c(CN3CCN(C(=O)C(C)(C)O)CC3)n2c1)S(C)(=O)=O [Compound 381] | +++ (pIC50 ≧ 6.00) | ++ (pIC50 5.00-5.99) | +++ (pIC50 ≧ 6.00) | +++ (pIC50 ≧ 6.00) |
| COCC(=O)N1CCN(Cc2c(-c3ccc(Cl)cc3Cl)nc3cnc(C4CC4)cn23)CC1 [Compound 311] | +++ (pIC50 ≧ 6.00) | +++ (pIC50 ≧ 6.00) | +++ (pIC50 ≧ 6.00) | +++ (pIC50 ≧ 6.00) |
| CC(=O)N1CCN(Cc2c(-c3ccc(Cl)cc3Cl)nc3cnc(C4CC4)cn23)CC1 [Compound 271] | +++ (pIC50 ≧ 6.00) | +++ (pIC50 ≧ 6.00) | +++ (pIC50 ≧ 6.00) | +++ (pIC50 ≧ 6.00) |
| CN(c1ccc2nc(-c3ccc(Cl)cc3Cl)c(CN3CCN(C(=O)C4COC4)CC3)n2c1)S(C)(=O)=O [Compound 335] | +++ (pIC50 ≧ 6.00) | +++ (pIC50 ≧ 6.00) | +++ (pIC50 ≧ 6.00) | +++ (pIC50 ≧ 6.00) |
| O=C(c1cccc(F)c1)N1CCN(Cc2c(-c3ccc(Cl)cc3)nc3ccc(-c4ccccc4)cn23)CC1 [Compound 8] | +++ (pIC50 ≧ 6.00) | +++ (pIC50 ≧ 6.00) | +++ (pIC50 ≧ 6.00) | +++ (pIC50 ≧ 6.00) |
| O=C(c1ccncc1)N1CCN(Cc2c(-c3ccc(Cl)cc3)nc3cnc(C4CC4)cn23)CC1 [Compound 265] | +++ (pIC50 ≧ 6.00) | +++ (pIC50 ≧ 6.00) | +++ (pIC50 ≧ 6.00) | +++ (pIC50 ≧ 6.00) |
| CC(=O)N1CCN(Cc2c(-c3ccc(Cl)cc3)nc3ccc(N(C(C)C)S(C)(=O)=O)cn23)CC1 [Compound 365] | +++ (pIC50 ≧ 6.00) | ++ (pIC50 5.00-5.99) | +++ (pIC50 ≧ 6.00) | +++ (pIC50 ≧ 6.00) |
| CN(c1ccc2nc(-c3ccc(Cl)cc3Cl)c(CN3CCN(C(=O)C4CCOCC4)CC3)n2c1)S(C)(=O)=O [Compound 372] | +++ (pIC50 ≧ 6.00) | +++ (pIC50 ≧ 6.00) | +++ (pIC50 ≧ 6.00) | +++ (pIC50 ≧ 6.00) |
| Clc1ccc(-c2nc3cnc(C4CC4)cn3c2CN2CCOCC2)cc1 [Compound 164] | +++ (pIC50 ≧ 6.00) | +++ (pIC50 ≧ 6.00) | +++ (pIC50 ≧ 6.00) | +++ (pIC50 ≧ 6.00) |
| CCS(=O)(=O)c1ccc2nc(-c3ccc(Cl)cc3)c(CN3CCN(C(C)=O)CC3)n2c1 [Compound 385] | +++ (pIC50 ≧ 6.00) | ++ (pIC50 5.00-5.99) | +++ (pIC50 ≧ 6.00) | +++ (pIC50 ≧ 6.00) |
| CC(C)(O)C(=O)N1CCN(Cc2c(-c3ccc(Cl)cc3Cl)nc3cnc(C4CC4)cn23)CC1 [Compound 322] | +++ (pIC50 ≧ 6.00) | +++ (pIC50 ≧ 6.00) | +++ (pIC50 ≧ 6.00) | +++ (pIC50 ≧ 6.00) |
| COCC(=O)N1CCN(Cc2c(-c3ccc(Cl)cc3Cl)nc3ccc(NS(C)(=O)=O)cn23)CC1 [Compound 336] | +++ (pIC50 ≧ 6.00) | ++ (pIC50 5.00-5.99) | +++ (pIC50 ≧ 6.00) | +++ (pIC50 ≧ 6.00) |
| O=C(C1CCOCC1)N1CCN(Cc2c(-c3ccc(Cl)cc3Cl)nc3cnc(C4CC4)cn23)CC1 [Compound 297] | +++ (pIC50 ≧ 6.00) | +++ (pIC50 ≧ 6.00) | +++ (pIC50 ≧ 6.00) | +++ (pIC50 ≧ 6.00) |
| Fc1cccc(F)c1-c1ccc2nc(-c3ccc(Cl)cc3)c(CN3CCOCC3)n2c1 [Compound 143] | +++ (pIC50 ≧ 6.00) | +++ (pIC50 ≧ 6.00) | +++ (pIC50 ≧ 6.00) | +++ (pIC50 ≧ 6.00) |
| Fc1cccc(F)c1-c1cn2c(CN3CCOCC3)c(-c3ccc(Cl)cc3)nc2cn1 [Compound 238] | +++ (pIC50 ≧ 6.00) | +++ (pIC50 ≧ 6.00) | +++ (pIC50 ≧ 6.00) | +++ (pIC50 ≧ 6.00) |
| CCS(=O)(=O)N(C)c1ccc2nc(-c3ccc(Cl)cc3)c(CN3CCN(C(C)=O)CC3)n2c1 [Compound 316] | +++ (pIC50 ≧ 6.00) | ++ (pIC50 5.00-5.99) | +++ (pIC50 ≧ 6.00) | +++ (pIC50 ≧ 6.00) |
| CN(c1ccc2nc(-c3ccc(Cl)cc3Cl)c(CN3CCNC(=O)C3)n2c1)S(C)(=O)=O [Compound 355] | +++ (pIC50 ≧ 6.00) | +++ (pIC50 ≧ 6.00) | +++ (pIC50 ≧ 6.00) | +++ (pIC50 ≧ 6.00) |
| CN(c1ccc2nc(-c3ccc(Cl)cc3Cl)c(CN3CCN(C(=O)c4ccnnc4)CC3)n2c1)S(C)(=O)=O [Compound 370] | +++ (pIC50 ≧ 6.00) | +++ (pIC50 ≧ 6.00) | +++ (pIC50 ≧ 6.00) | +++ (pIC50 ≧ 6.00) |
| CC(=O)N1CCN(Cc2c(-c3ccc(Cl)cc3Cl)nc3ccc(N(C(F)F)S(C)(=O)=O)cn23)CC1 [Compound 367] | +++ (pIC50 ≧ 6.00) | +++ (pIC50 ≧ 6.00) | +++ (pIC50 ≧ 6.00) | +++ (pIC50 ≧ 6.00) |

— patent publication US20160120863A1, “SLC2A TRANSPORTER INHIBITORS” (IOMET PHARMA LTD., priority 2013, published 2016)
